Measurements as given in PubChem BioAssay AID272 (DTP/NCI, 2004).
“And” between values parts separate entries of the source, which are not always exact repeats. Equal values may be shown once. Records with an inconclusive call do not appear.

System: Lewis lung carcinoma i.m., BDF1 mice, T/C %
Assay: NCI In Vivo Anticancer Drug Screen. Data for tumor model Lewis Lung Carcinoma (intramuscular) in B6D2F1 (BDF1) mice
Summary of the method: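 Tumour-bearing mice were dosed with compound, and either their survival or their tumour size was measured. Results were expressed relative to vehicle-treated controls as T/C.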

Compound: O=P1(N(CCCl)CCCl)NCCCO1 (centres undefined)
- T/C (endpoint: mean tumor weight (est.), dose: 65.0 mg/kg/injection, schedule: Q01DX011 (ip), vehicle: saline, higher = larger tumour): 40 % of control
- T/C (endpoint: mean tumor weight, dose: 65.0 mg/kg/injection, schedule: Q01DX001 (sc), vehicle: saline, higher = larger tumour): 44 % of control
- T/C (endpoint: mean tumor weight, dose: 100.0 mg/kg/injection, schedule: Q01DX001 (ip), vehicle: saline, higher = larger tumour): 58 % of control
- T/C (endpoint: mean tumor weight, dose: 108.0 mg/kg/injection, schedule: Q01DX001 (sc), vehicle: saline, higher = larger tumour): 39 % of control
- T/C (endpoint: mean tumor weight, dose: 180.0 mg/kg/injection, schedule: Q01DX001 (ip), vehicle: saline, higher = larger tumour): 13 % of control
- T/C (endpoint: mean tumor weight, dose: 180.0 mg/kg/injection, schedule: Q01DX001 (sc), vehicle: saline, higher = larger tumour): 27 % of control
- T/C (endpoint: mean tumor weight, dose: 300.0 mg/kg/injection, schedule: Q01DX001 (sc), vehicle: saline, higher = larger tumour): 31 % of control
- T/C (endpoint: median survival time, dose: 6.25 mg/kg/injection, schedule: Q01DX009 (ip), vehicle: saline, higher = longer survival): 106 % of control
- T/C (endpoint: median survival time, dose: 12.5 mg/kg/injection, schedule: Q01DX009 (ip), vehicle: saline, higher = longer survival): 116 % of control
- T/C (endpoint: median survival time, dose: 12.5 mg/kg/injection, schedule: Q03DX010 (ip), vehicle: saline, higher = longer survival): 109 % of control and 110 % of control
- T/C (endpoint: median survival time, dose: 19.0 mg/kg/injection, schedule: Q01DX007 (sc), vehicle: saline, higher = longer survival): 100 % of control
- T/C (endpoint: median survival time, dose: 23.0 mg/kg/injection, schedule: Q08DX003 (sc), vehicle: saline, higher = longer survival): 121 % of control
- T/C (endpoint: median survival time, dose: 25.0 mg/kg/injection, schedule: Q01DX009 (ip), vehicle: saline, higher = longer survival): 114 % of control
- T/C (endpoint: median survival time, dose: 39.0 mg/kg/injection, schedule: Q08DX003 (ip), vehicle: saline, higher = longer survival): 100 % of control and 105 % of control
- T/C (endpoint: median survival time, dose: 39.0 mg/kg/injection, schedule: Q08DX003 (sc), vehicle: saline, higher = longer survival): 184 % of control and 186 % of control
- T/C (endpoint: median survival time, dose: 50.0 mg/kg/injection, schedule: Q01DX001 (ip), vehicle: methylcellulose (MC), higher = longer survival): 104 % of control and 106 % of control
- T/C (endpoint: median survival time, dose: 50.0 mg/kg/injection, schedule: Q01DX009 (ip), vehicle: saline, higher = longer survival): 114 % of control
- T/C (endpoint: median survival time, dose: 52.0 mg/kg/injection, schedule: Q01DX007 (sc), vehicle: saline, higher = longer survival): 95 % of control and 105 % of control
- T/C (endpoint: median survival time, dose: 65.0 mg/kg/injection, schedule: Q08DX003 (ip), vehicle: saline, higher = longer survival): 161 % of control
- T/C (endpoint: median survival time, dose: 65.0 mg/kg/injection, schedule: Q08DX003 (sc), vehicle: saline, higher = longer survival): 191 % of control and 192 % of control
- T/C (endpoint: median survival time, dose: 65.0 mg/kg/injection, schedule: Q14DX002 (ip), vehicle: saline, higher = longer survival): 168 % of control
- T/C (endpoint: median survival time, dose: 86.0 mg/kg/injection, schedule: Q01DX007 (sc), vehicle: saline, higher = longer survival): 78 % of control
- T/C (endpoint: median survival time, dose: 100.0 mg/kg/injection, schedule: Q01DX001 (ip), vehicle: methylcellulose (MC), higher = longer survival): 198 % of control and 235 % of control
- T/C (endpoint: median survival time, dose: 100.0 mg/kg/injection, schedule: Q14DX002 (ip), vehicle: saline, higher = longer survival): 159 % of control
- T/C (endpoint: median survival time, dose: 108.0 mg/kg/injection, schedule: Q08DX003 (ip), vehicle: saline, higher = longer survival): 89 % of control
- T/C (endpoint: median survival time, dose: 108.0 mg/kg/injection, schedule: Q08DX003 (sc), vehicle: saline, higher = longer survival): 173 % of control and 186 % of control
- T/C (endpoint: median survival time, dose: 108.0 mg/kg/injection, schedule: Q14DX002 (ip), vehicle: saline, higher = longer survival): 154 % of control
- T/C (endpoint: median survival time, dose: 144.0 mg/kg/injection, schedule: Q01DX001 (sc), vehicle: saline, higher = longer survival): 151 % of control
- T/C (endpoint: median survival time, dose: 180.0 mg/kg/injection, schedule: Q08DX003 (ip), vehicle: saline, higher = longer survival): 68 % of control
- T/C (endpoint: median survival time, dose: 180.0 mg/kg/injection, schedule: Q08DX003 (sc), vehicle: saline, higher = longer survival): 100 % of control and 103 % of control
- T/C (endpoint: median survival time, dose: 180.0 mg/kg/injection, schedule: Q14DX002 (ip), vehicle: saline, higher = longer survival): 113 % of control
- T/C (endpoint: median survival time, dose: 200.0 mg/kg/injection, schedule: Q01DX001 (ip), vehicle: methylcellulose (MC), higher = longer survival): 39 % of control
- T/C (endpoint: median survival time, dose: 200.0 mg/kg/injection, schedule: Q03DX010 (ip), vehicle: saline, higher = longer survival): 30 % of control
- T/C (endpoint: median survival time, dose: 200.0 mg/kg/injection, schedule: Q14DX002 (ip), vehicle: saline, higher = longer survival): 122 % of control
- T/C (endpoint: median survival time, dose: 240.0 mg/kg/injection, schedule: Q01DX001 (sc), vehicle: saline, higher = longer survival): 174 % of control and 180 % of control
- T/C (endpoint: median survival time, dose: 300.0 mg/kg/injection, schedule: Q01DX001 (ip), vehicle: saline, higher = longer survival): 63 % of control
- T/C (endpoint: median survival time, dose: 300.0 mg/kg/injection, schedule: Q01DX001 (sc), vehicle: saline, higher = longer survival): 160 % of control
- T/C (endpoint: median survival time, dose: 300.0 mg/kg/injection, schedule: Q08DX003 (ip), vehicle: saline, higher = longer survival): 57 % of control
- T/C (endpoint: median survival time, dose: 400.0 mg/kg/injection, schedule: Q01DX001 (ip), vehicle: methylcellulose (MC), higher = longer survival): 22 % of control
- T/C (endpoint: median survival time, dose: 400.0 mg/kg/injection, schedule: Q01DX001 (ip), vehicle: saline, higher = longer survival): 60 % of control
- T/C (endpoint: median survival time, dose: 400.0 mg/kg/injection, schedule: Q01DX001 (sc), vehicle: saline, higher = longer survival): 49 % of control
- T/C (endpoint: median survival time, dose: 460.0 mg/kg/injection, schedule: Q01DX001 (ip), vehicle: saline, higher = longer survival): 18 % of control
- T/C (endpoint: median tumor weight (est.), dose: 65.0 mg/kg/injection, schedule: Q01DX001 (ip), vehicle: saline, higher = larger tumour): 27 % of control

Compound: O=C1NC(=O)C(F)(F)C(O)N1 (centres undefined)
- T/C (endpoint: mean tumor weight (est.), dose: 40.0 mg/kg/injection, schedule: Q01DX011 (ip), vehicle: saline, higher = larger tumour): 103 % of control
- T/C (endpoint: mean tumor weight (est.), dose: 80.0 mg/kg/injection, schedule: Q01DX011 (ip), vehicle: saline, higher = larger tumour): 80 % of control
- T/C (endpoint: mean tumor weight (est.), dose: 160.0 mg/kg/injection, schedule: Q01DX011 (ip), vehicle: saline, higher = larger tumour): 43 % of control
- T/C (endpoint: median survival time, dose: 40.0 mg/kg/injection, schedule: Q01DX011 (ip), vehicle: saline, higher = longer survival): 98 % of control
- T/C (endpoint: median survival time, dose: 80.0 mg/kg/injection, schedule: Q01DX011 (ip), vehicle: saline, higher = longer survival): 103 % of control

Compound: COC12C(COC(N)=O)C3=C(C(=O)C(C)=C(N)C3=O)N1CC1C2N1C (centres undefined)
- T/C (endpoint: median survival time, dose: 2.0 mg/kg/injection, schedule: Q01DX009 (ip), vehicle: Klucel (hydroxypropylcellulose) (HPC), higher = longer survival): 92 % of control and 105 % of control
- T/C (endpoint: median survival time, dose: 2.0 mg/kg/injection, schedule: Q01DX011 (ip), vehicle: saline + alcohol, higher = longer survival): 101 % of control and 111 % of control
- T/C (endpoint: median survival time, dose: 4.0 mg/kg/injection, schedule: Q01DX009 (ip), vehicle: Klucel (hydroxypropylcellulose) (HPC), higher = longer survival): 100 % of control and 106 % of control
- T/C (endpoint: median survival time, dose: 4.0 mg/kg/injection, schedule: Q01DX011 (ip), vehicle: saline + alcohol, higher = longer survival): 105 % of control

Compound: CO[C@H]1/C=C/O[C@@]2(C)Oc3c(C)c(O)c4c(O)c(c(/C=N/N5C(C)CN(Cc6ccccc6)CC5C)c(O)c4c3C2=O)NC(=O)/C(C)=C\C=C\[C@H](C)[C@H](O)[C@@H](C)[C@@H](O)[C@@H](C)[C@H](OC(C)=O)[C@@H]1C (some centres undefined)
- T/C (endpoint: median survival time, dose: 25.0 mg/kg/injection, schedule: Q02DX009 (ip), vehicle: other, higher = longer survival): 117 % of control
- T/C (endpoint: median survival time, dose: 50.0 mg/kg/injection, schedule: Q02DX009 (ip), vehicle: Klucel (hydroxypropylcellulose) (HPC), higher = longer survival): 114 % of control
- T/C (endpoint: median survival time, dose: 50.0 mg/kg/injection, schedule: Q02DX009 (ip), vehicle: other, higher = longer survival): 107 % of control
- T/C (endpoint: median survival time, dose: 200.0 mg/kg/injection, schedule: Q02DX009 (ip), vehicle: Klucel (hydroxypropylcellulose) (HPC), higher = longer survival): 98 % of control
- T/C (endpoint: median survival time, dose: 200.0 mg/kg/injection, schedule: Q02DX009 (ip), vehicle: other, higher = longer survival): 87 % of control
- T/C (endpoint: median survival time, dose: 400.0 mg/kg/injection, schedule: Q02DX009 (ip), vehicle: Klucel (hydroxypropylcellulose) (HPC), higher = longer survival): 98 % of control

Compound: CC(=O)NC(CS)C(=O)O (centres undefined)
- T/C (endpoint: mean tumor weight (est.), dose: 750.0 mg/kg/injection, schedule: Q01DX009 (ip), vehicle: saline, higher = larger tumour): 91 % of control
- T/C (endpoint: mean tumor weight (est.), dose: 1500.0 mg/kg/injection, schedule: Q01DX009 (ip), vehicle: saline, higher = larger tumour): 86 % of control

Compound: Cc1c(C(=O)O)nc(/C=C/C(=O)O)[nH]c1=O
- T/C (endpoint: median survival time, dose: 4.0 mg/kg/injection, schedule: Q01DX009 (ip), vehicle: water, higher = longer survival): 105 % of control
- T/C (endpoint: median survival time, dose: 8.0 mg/kg/injection, schedule: Q01DX009 (ip), vehicle: water, higher = longer survival): 108 % of control
- T/C (endpoint: median survival time, dose: 16.0 mg/kg/injection, schedule: Q01DX009 (ip), vehicle: water, higher = longer survival): 108 % of control

Compound: CC/C(=C(/CC)c1ccc(O)cc1)c1ccc(O)cc1
- T/C (endpoint: mean tumor weight, dose: 25.0 mg/kg/injection, schedule: Q01DX011 (ip), vehicle: steriod suspending solution, higher = larger tumour): 43 % of control
- T/C (endpoint: mean tumor weight, dose: 50.0 mg/kg/injection, schedule: Q01DX011 (ip), vehicle: steriod suspending solution, higher = larger tumour): 29 % of control
- T/C (endpoint: mean tumor weight, dose: 100.0 mg/kg/injection, schedule: Q01DX011 (ip), vehicle: steriod suspending solution, higher = larger tumour): 14 % of control and 34 % of control
- T/C (endpoint: median survival time, dose: 25.0 mg/kg/injection, schedule: Q01DX011 (ip), vehicle: steriod suspending solution, higher = longer survival): 86 % of control
- T/C (endpoint: median survival time, dose: 25.0 mg/kg/injection, schedule: Q01DX011 (ip), vehicle: water, higher = longer survival): 91 % of control and 97 % of control
- T/C (endpoint: median survival time, dose: 50.0 mg/kg/injection, schedule: Q01DX011 (ip), vehicle: steriod suspending solution, higher = longer survival): 106 % of control
- T/C (endpoint: median survival time, dose: 50.0 mg/kg/injection, schedule: Q01DX011 (ip), vehicle: water, higher = longer survival): 92 % of control
- T/C (endpoint: median survival time, dose: 100.0 mg/kg/injection, schedule: Q01DX011 (ip), vehicle: steriod suspending solution, higher = longer survival): 104 % of control
- T/C (endpoint: median survival time, dose: 100.0 mg/kg/injection, schedule: Q01DX011 (ip), vehicle: water, higher = longer survival): 97 % of control and 101 % of control

Compound: COC(=O)Nc1nc2ccc(C(=O)c3cccs3)cc2[nH]1
- T/C (endpoint: median survival time, dose: 35.0 mg/kg/injection, schedule: Q03DX008 (ip), vehicle: other, higher = longer survival): 101 % of control
- T/C (endpoint: median survival time, dose: 70.0 mg/kg/injection, schedule: Q03DX008 (ip), vehicle: other, higher = longer survival): 86 % of control
